Test results published in the NIST ThermoML archive (doi:10.1021/je9005618).
± gives the expanded uncertainty stated by the source.

Legend:
[1] = refractive index (Na D-line) (dimensionless); settings: 101.33 kPa, Liquid, Standard Abbe refractometry
[2] = 101.33 kPa, Liquid; for speed of sound: Pulse-echo method; for mass density: Vibrating tube method

| Structure (SMILES) | refractive index ([1]; 288.15 K) | refractive index ([1]; 298.15 K) | refractive index ([1]; 308.15 K) | refractive index ([1]; 318.15 K) | speed of sound ([2]; 278.15 K) [m/s] | mass density ([2]; 278.15 K) [kg/m3] | speed of sound ([2]; 288.15 K) [m/s] | mass density ([2]; 288.15 K) [kg/m3] | speed of sound ([2]; 298.15 K) [m/s] | mass density ([2]; 298.15 K) [kg/m3] | speed of sound ([2]; 308.15 K) [m/s] | mass density ([2]; 308.15 K) [kg/m3] | speed of sound ([2]; 318.15 K) [m/s] | mass density ([2]; 318.15 K) [kg/m3] | refractive index ([1]; 328.15 K) | speed of sound ([2]; 328.15 K) [m/s] | mass density ([2]; 328.15 K) [kg/m3] |
| --- | --- | --- | --- | --- | --- | --- | --- | --- | --- | --- | --- | --- | --- | --- | --- | --- | --- |
| COC(C)=O [methyl ethanoate] | 1.36414 ± 0.00033 | 1.35881 ± 0.00033 | 1.35367 ± 0.00033 | 1.34823 ± 0.00033 | 1243.5 ± 0.81 | 953.04 ± 0.09 | 1196.8 ± 0.8 | 940.12 ± 0.1 | 1150.7 ± 0.78 | 927.01 ± 0.1 | 1104.7 ± 0.77 | 913.68 ± 0.11 | 1059.2 ± 0.75 | 900.13 ± 0.11 | – | – | – |
| CC(C)=O [acetone] | 1.36146 ± 0.001 | 1.35597 ± 0.001 | 1.35054 ± 0.001 | 1.34491 ± 0.001 | 1256.5 ± 1.2 | 807.41 ± 0.24 | 1210.7 ± 1.2 | 796.14 ± 0.24 | 1165 ± 1.2 | 784.76 ± 0.24 | 1118.5 ± 1.2 | 773.21 ± 0.24 | 1073.7 ± 1.1 | 761.47 ± 0.24 | – | – | – |
| CCOC(C)=O [ethyl acetate] | 1.37519 ± 0.00037 | 1.36994 ± 0.00037 | 1.3646 ± 0.00037 | 1.35919 ± 0.00037 | 1231 ± 1.2 | 918.5 ± 0.23 | 1185.2 ± 1.2 | 906.48 ± 0.23 | 1140 ± 1.2 | 894.33 ± 0.23 | 1095.3 ± 1.2 | 882.02 ± 0.23 | 1051 ± 1.1 | 869.52 ± 0.23 | 1.35368 ± 0.00037 | 1007.4 ± 1.1 | 856.85 ± 0.23 |
| CCn1cc[n+](C)c1.O=S(=O)([O-])C(F)(F)F [1-ethyl-3-methylimidazolium trifluoromethanesulfonate] | 1.43599 ± 0.00051 | 1.4332 ± 0.00051 | 1.4304 ± 0.00051 | 1.42767 ± 0.00051 | – | – | – | – | – | – | – | – | – | – | 1.42494 ± 0.00051 | – | – |
